Results as given in publication PMC7287882, “Dual miRNases for Triple Incision of miRNA Target: Design Concept and Catalytic Performance” (Molecules, 2020).

What was measured:
[1] = system: miR-18a; assay: Gel-retardation assay, hybridization with miR-18a; type: binding; settings: 37 °C, 45 min, mean of 3
Excerpt: We carried out a comparative analysis of the hybridization properties of the developed DCs with the corresponding SCs, which were the products of the first stage of the DCs synthesis. As discussed above, each SC consisted of the corresponding oligonucleotide A, which was complementary to the 5′-region of the matching miRNA target, and the catalytic peptide [LRLRG]2, attached to the 5′-end of this oligonucleotide via a thiohexyl linker (linker 2). […] Indeed, the level of binding of DCs to their miRNA targets reached 96, 90, 75, 55% at equimolar concentration (1 μM), and 99, 96, 92 and 69% at 5-fold excess of DCs over miR-17, miR-18a, miR-21 and miR-155, respectively (Figure 2). […]
The reaction mixture (4 µL) containing 50 mM Tris-HCl, pH 7.0, 200 mM KCl and 1 mM EDTA, 100 cpm (Cherenkov’s counting) of [^32P]-miRNA, 1 μM unlabeled miRNA, a conjugate at a concentration ranging from 0.1 to 10 μM was incubated at 37 °C for 45 min and quenched by adding of a loading buffer (20% ficoll, 0.025% bromophenol blue, 0.025% xylene cyanol). […] Formation of the complex miRNA/conjugate was analyzed by electrophoresis in 15% native PAAG at 4 °C. The gels were analyzed using Molecular Imager FX. The extent of binding of conjugate to miRNA was determined as a ratio of radioactivity measured in the complex to the total radioactivity applied onto the gel lane.

[2] = system: miR-155; assay: Ribonuclease activity assay, cleavage of miR-155; type: biochemical; settings: miRNA 1 µM, DC 20 µM, 37 °C
Method: The ribonuclease activity of DCs was studied under two different buffer conditions: buffer (1) contained 50 mM Tris-HCl, pH 7.0, 200 mM KCl, 1 mM EDTA, which imitates intracellular conditions (e.g., pH and potassium ions concentration) and was used in a number of studies previously; and buffer (2) contained 20 mM Tris-HCl, pH 7.8, 40 mM KCl, 8 mM MgCl2, 1 mM DTT, 0.02 mg/mL BSA, which is recommended for in vitro reactions with RNase H (Figure 3 and Figure 4).
Figure 3 Kinetics of cleavage of 5′-[^32P]-labeled miR-17, miR-18a, miR-155, miR-21 and miR-21_1 by corresponding DCs in the buffer (1), containing 50 mM Tris-HCl, pH 7.0, 200 mM KCl and 1 mM EDTA. (a–e) Radioautographs of 18% denaturing PAAG showing the cleavage products of miR-17, miR-18a, miR-155, miR-21 and miR-21_1, respectively. miRNA (1 µM) and corresponding DC (20 µM) were incubated at 37 °C for 72 h. Lanes Im and T1—imidazole ladder and partial RNA digestion with RNase T1, respectively; control–miRNA was incubated in the absence of the conjugate. The incubation time (in hours) is show at the top. SS gap–single-stranded region of miRNA formed upon hybridization with DC; (f) Kinetics of miRNAs cleavage by DCs depending on the incubation time. Data are presented as mean ± s.e.
Figure 4 Kinetics of cleavage of 5′-[^32P]-labeled miR-17, miR-18a, miR-155, miR-21, and miR-21_1 by corresponding DCs in the buffer (2), containing 20 mM Tris-HCl, pH 7.8, 40 mM KCl, 8 mM MgCl2, 1 mM DTT, 0.02 mg/mL BSA. (a–e) Radioautographs of 18% denaturing PAAG showing the cleavage products of miR-17, miR-18a, miR-155, miR-21 and miR-21_1, respectively. miRNA (1 µM) and corresponding DC (20 µM) were incubated at 37 °C for 72 h. Lanes Im and T1–imidazole ladder and partial RNA digestion with RNase T1, respectively; control–miRNA was incubated in the absence of the conjugate. The incubation time (in hours) is shown at the top. SS gap–single-stranded region of miRNA formed upon hybridization with DC; (f) Kinetics of miRNAs cleavage by DCs. Data are presented as mean ± s.e.
The reaction mixture (10 µL) contained 800 cpm (Cherenkov’s counting) of [^32P]-miRNA, 1 μM unlabeled miRNA, one of the conjugates at a concentration 10 or 20 μM and one of the buffers: 50 mM Tris-HCl, pH 7.0, 200 mM KCl, 1 mM EDTA–buffer (1) or 20 mM Tris-HCl, pH 7.8, 40 mM KCl, 8 mM MgCl2, 1 mM DTT, 0.02 mg/mL BSA–buffer (2). The mixture was incubated at 37 °C for 0–72 h and quenched by precipitation of RNA with 2% LiClO4 in acetone (90 µL). RNA was collected by centrifugation and dissolved in loading buffer (8 M urea, 0.025% bromophenol blue, 0.025% xylene cyanol). RNA cleavage products were analyzed in 18% PAAG/8M urea using TBE (100 mM Tris-borate, pH 8.3, 2 mM EDTA) as running buffer. To identify cleavage sites, an imidazole and T1-ladders produced by partial RNA cleavage with 2 M imidazole buffer (pH 7.0) and with RNase T1 [68], respectively, were run in parallel. To obtain quantitative data, gels were dried and analyzed using Molecular Imager FX. The total extent of RNA cleavage and the extent of RNA cleavage at each individual site were determined by using Quantity One software v.4.1 (Bio-Rad, Hercules, CA, USA).

| Substance | level of binding of DC to miRNA target ([1]; 5-fold excess of DC over miRNA (1 µM), same buffer) [%] | level of binding of DC to miRNA target ([1]; equimolar, DC 1 µM : miRNA 1 µM, 50 mM Tris-HCl pH 7.0, 200 mM KCl, 1 mM EDTA) [%] | Total Cleavage ([2]; buffer (1) 50 mM Tris-HCl pH 7.0, 200 mM KCl, 1 mM EDTA, 2 h) [%] | Total Cleavage ([2]; buffer (1) 50 mM Tris-HCl pH 7.0, 200 mM KCl, 1 mM EDTA, 6 h) [%] | Total Cleavage ([2]; buffer (1) 50 mM Tris-HCl pH 7.0, 200 mM KCl, 1 mM EDTA, 24 h) | Total Cleavage ([2]; buffer (1) 50 mM Tris-HCl pH 7.0, 200 mM KCl, 1 mM EDTA, 48 h) [%] | Total Cleavage ([2]; buffer (1) 50 mM Tris-HCl pH 7.0, 200 mM KCl, 1 mM EDTA, 72 h) [%] | Total Cleavage ([2]; buffer (2) 20 mM Tris-HCl pH 7.8, 40 mM KCl, 8 mM MgCl2, 1 mM DTT, 0.02 mg/mL BSA, 2 h) [%] | Total Cleavage ([2]; buffer (2) 20 mM Tris-HCl pH 7.8, 40 mM KCl, 8 mM MgCl2, 1 mM DTT, 0.02 mg/mL BSA, 6 h) [%] | Total Cleavage ([2]; buffer (2) 20 mM Tris-HCl pH 7.8, 40 mM KCl, 8 mM MgCl2, 1 mM DTT, 0.02 mg/mL BSA, 24 h) [%] | Total Cleavage ([2]; buffer (2) 20 mM Tris-HCl pH 7.8, 40 mM KCl, 8 mM MgCl2, 1 mM DTT, 0.02 mg/mL BSA, 48 h) [%] | Total Cleavage ([2]; buffer (2) 20 mM Tris-HCl pH 7.8, 40 mM KCl, 8 mM MgCl2, 1 mM DTT, 0.02 mg/mL BSA, 72 h) [%] | rise of Kobs in buffer (2) compared to Kobs in buffer (1) [2] [fold] |
| --- | --- | --- | --- | --- | --- | --- | --- | --- | --- | --- | --- | --- | --- |
| TATCTGC–linker 1–[GRLRL]2–linker 2–ATGCACCTTA [miRNA-18a-DC, Dual oligonucleotide-peptide conjugate targeted to miR-18a: catalytic peptide [LRLRG]2 between two 2-aminoadenine-containing oligodeoxyribonucleotides] | 96 | 90 |  |  |  |  |  |  |  |  |  |  |  |
| ACCCCTAT–linker 1–[GRLRL]2–linker 2–TTAGCATTAA [miRNA-155-DC, Dual oligonucleotide-peptide conjugate targeted to miR-155: catalytic peptide [LRLRG]2 between two 2-aminoadenine-containing oligodeoxyribonucleotides] |  |  | 0 | 0 | 0,5% | 16 | 21 | 15 | 41 | 56 | 57 | 72 | 6 |
